From US20030225273A1, “Thiopyrimidine and isothiazolopyrimidine kinase inhibitors” (priority 2002, published 2003)

Row | melting point [°C] | SMILES
1 | 100 to 105 | Nc1ncnc2sc(Cc3ccccc3)c(-c3ccc(NS(=O)(=O)c4ccccc4)cc3)c12 [Example 13, N-[4-(4-amino-6-benzylthieno[2,3-d]pyrimidin-5-yl)phenyl]benzenesulfonamide]
2 | 162 to 166 | Nc1ncnc2sc(Cc3ccncc3)c(-c3ccc(NC(=O)Nc4cccc(C(F)(F)F)c4)cc3)c12 [Example 142, N-{4-[4-amino-6-(pyridin-4-ylmethyl)thieno[2,3-d]pyrimidin-5-yl]phenyl}-N′-[3-(trifluoromethyl)phenyl]urea]
3 | 169 to 173 | Cc1ccc(NC(=O)Nc2ccc(-c3c(Cc4ccccc4)sc4ncnc(N)c34)cc2)cc1 [Example 9, N-[4-(4-amino-6-benzylthieno[2,3-d]pyrimidin-5-yl)phenyl]-N′-(4-methylphenyl)urea]
4 | 200 to 202 | COCCc1sc2ncnc(N)c2c1-c1ccc(NC(=O)c2ccccc2)cc1 [Example 113, N-{4-[4-amino-6-(2-methoxyethyl)thieno[2,3-d]pyrimidin-5-yl]phenyl}benzamide]
5 | 217 to 219 | COCCc1sc2ncnc(N)c2c1-c1ccc(N(C(N)=O)c2ccccc2C)cc1 [Example 137, N-{4-[4-amino-6-(2-methoxyethyl)thieno[2,3-d]pyrimidin-5-yl]phenyl}-N-(2-methylphenyl)urea]
6 | 206 to 208 | COCCc1sc2ncnc(N)c2c1-c1ccc(NS(=O)(=O)c2ccccc2)cc1 [Example 111, N-{4-[4-amino-6-(2-methoxyethyl)thieno[2,3-d]pyrimidin-5-yl]phenyl}benzenesulfonamide]
7 | > 250 | CC(C)c1sc2ncnc(N)c2c1-c1ccc(NC(=O)c2ccccc2)cc1 [Example 8, N-[4-(4-amino-6-isopropylthieno[2,3-d]pyrimidin-5-yl)phenyl]benzamide]
8 | 142 to 144 | Cc1cccc(CC(=O)Nc2ccc(-c3c(CCO)sc4ncnc(N)c34)cc2)c1 [Example 350, N-{4-[4-amino-6-(2-hydroxyethyl)thieno[2,3-d]pyrimidin-5-yl]phenyl}-2-(3-methylphenyl)acetamide]
9 | 155 to 158 | NC(=O)N(c1ccc(-c2c(CCO)sc3ncnc(N)c23)cc1)c1cccc(C(F)(F)F)c1 [Example 139, N-{4-[4-amino-6-(2-hydroxyethyl)thieno[2,3-d]pyrimidin-5-yl]phenyl}-N-[3-(trifluoromethyl)phenyl]urea]
10 | 128 to 132 | COCCc1sc2ncnc(N)c2c1-c1ccc(NC(=O)Nc2ccc(C)cc2)cc1 [Example 110, N-{4-[4-amino-6-(2-methoxyethyl)thieno[2,3-d]pyrimidin-5-yl]phenyl}-N′-(4-methylphenyl)urea]
11 | 169 to 172 | Nc1ncnc2sc(Cc3cccnc3)c(-c3ccc(NC(=O)Nc4cccc(Cl)c4)cc3)c12 [Example 117, N-{4-[4-amino-6-(pyridin-3-ylmethyl)thieno[2,3-d]pyrimidin-5-yl]phenyl}-N′-(3-chlorophenyl)urea]
12 | 159 to 162 | Cc1ccccc1NC(=O)Nc1ccc(-c2c(CCO)sc3ncnc(N)c23)cc1 [Example 107, N-{4-[4-amino-6-(2-hydroxyethyl)thieno[2,3-d]pyrimidin-5-yl]phenyl}-N′-(2-methylphenyl)urea]
13 | 209 to 211 | COCCc1sc2ncnc(N)c2c1-c1ccc(NC(=O)Nc2cc(C(F)(F)F)ccc2F)cc1 [Example 140, N-{4-[4-amino-6-(2-methoxyethyl)thieno[2,3-d]pyrimidin-5-yl]phenyl}-N′-[2-fluoro-5-(trifluoromethyl)phenyl]urea]
14 | 200 to 202 | COCCc1sc2ncnc(N)c2c1-c1ccc(NC(=O)Cc2cccc(C)c2)cc1 [Example 112, N-{4-[4-amino-6-(2-methoxyethyl)thieno[2,3-d]pyrimidin-5-yl]phenyl}-2-(3-methylphenyl)acetamide]
